Assays:
[1] = Drug concentration in CD-1 mouse plasma at 5 mg/kg, ip administered for 90 mins; format: ADME, organism-based
in vivo = conditions: Sprague-Dawley, rat, brain and plasma
Description: Ratio of AUC(0 to 72 hrs) in Sprague-Dawley rat brain to plasma by LC-MS/MS analysis

[2] = Plasma protein binding in mouse after 15 mins by equilibrium dialysis method; format: ADME, cell-free; conditions: read-out: PPB (converted)

`C[C@H](CC[C@](C)(O)C(F)(F)F)[C@H]1CC[C@H]2[C@@H]3CC=C4C[C@@](C)(O)CC[C@]4(C)[C@H]3CC[C@]12C` [DALZANEMDOR] showed a concentration at 1.5 h [1] of 1550 ng/mL, a Kp (in vivo) of 5.3 and a fraction unbound at 0.25 h [2] of 0.014.

— ChEMBL document CHEMBL5131569, “SAGE-718: A First-in-Class N-Methyl-d-Aspartate Receptor Positive Allosteric Modulator for the Potential Treatment of Cognitive Impairment” (J Med Chem, 2022)
